Assay results published in patent publication US20230190887A1, “TARGETING G3BP AGGREGATION TO PREVENT NEURODEGENERATION” (priority 2019, published 2023).
“Also recorded” adds a separate entry of the source.

System: GFP^MYR/mCh^MYR translation reporters in DRG axons
Assay: FRAP of axonal translation reporters
Assay type: cell-based, rat
Conditions: 10 μM peptide 30 min
Description: Fluorescence recovery after photobleaching (FRAP). FRAP was used to test for axonal mRNA protein synthesis using diffusion-limited GFP^MYR and mCherry^MYR reporters as described with minor modifications. In each case, DRG neurons were co-transfected with GFP^MYR 5′/3′nrn1+mCherry^MYR 5′/3′gap43 or GFP^MYR 5′/3′impβ1+mCherry^MYR5′/3′gap43 so that recovery of both reporters could be analyzed simultaneously. Cells were maintained at 37° C., 5% CO2 during imaging sequences. 488 nm and 514 nm laser lines on Leica SP8X confocal microscope were used to bleach GFP and mCherry signals, respectively (Argon laser at 70% power, pulsed every 0.82 s for 80 frames). Pinhole was set to 3 Airy units to ensure full thickness bleaching and acquisition (63×/1.4 NA oil immersion objective). Prior to photobleaching, neurons were imaged every 60 s for 2 min to acquire baseline fluorescence the region of interest (ROI; 15% laser power, 498-530 nm for GFP and 565-597 nm for mCherry emissions, respectively). The same excitation and emission parameters were used to assess recovery over 15 min post-bleach with images acquired at 30 s intervals. To determine if fluorescence recovery in axons was from translation, cultures were treated with 150 μg/ml cycloheximide (Sigma) or 100 μm anisomycin (Sigma) for 30 min prior to photobleaching for GFP^MYR 5′/3′nrn1+mCherry^MYR 5′/3′gap43 and GFP^MYR 5′/3′impβ1+mCh^MYR 5′/3′gap43 transfected DRGs, respectively. […] Photobleaching followed by analyses of recovery was performed after 30 min of peptide exposure.
For normalizing across experiments, fluorescence intensity value at t=0 min postbleach from each image sequence was set as 0%. The percentage of fluorescence recovery at each time point after photobleaching was then calculated by normalizing relative to the pre-bleach fluorescence intensity (set at 100%).

In the case of “YGNKKNNNQNNN-VVEPEPEPEPEPEPEPVSE [G3BP1 190-208 peptide]”, the “axonal translation of GFP^MYR 5′/3′nrn1” value (G3BP1 overexpression (G3BP1-BFP)) is reported as “reversed the decrease in axonal translation; also recorded: increased”, the “axonal translation of GFP^MYR 5′/3′impβ1” value (G3BP1 overexpression) is reported as “did not rescue the decline in axonal translation” and the “GFP^MYR 5′/3′impβ1 translation in axons” value (control conditions) is reported as “lack of effect”. The “mCh^MYR 5′/3′gap43 translation in axons” value (control conditions) was “lack of effect”.
